We go through one substance from patent US8067015B2, “Methods and compositions for the treatment and prevention of Staphylococcus and other bacterial infections” (priority 1997, dated 2011).

Where no end group is shown, it is not given here.

The test system of test [1] is S. aureus MS. The following applies: rabbits; cited from earlier work.
Test [2] deals with S. aureus Newbould 305, AE-1, and environmental infections. The following applies: cows; cited from earlier work.
The subject of test [3] is S. epidermidis adherence to HaCat cells. Briefly: Adherence of FITC-labeled S. epidermidis to HaCat cells. The following applies: 5 μg RIP, 10^6 CFU, 30 min at 37° C. Type of test: cell-based. The protocol:
FIG. 14A is a graph depicting adherence in the presence of RIP (RIP+) and in the absence of RIP (RIP−). FITC-labeled bacterial cells (10^6 CFU) were applied to microtiter plates containing confluent 10^4 HaCat cells, in the presence or absence of 5 μg RIP (RIP+/−). Cells were incubated for 30 min at 37° C., washed in PBS and fluorescence at 485/530 nm was determined.
Virulence of S. epidermidis is also often associated with their ability to adhere to host cells and to form biofilm on medical devices. To test whether RIP can prevent S. epidermidis from colonizing host cells and therefore be a candidate for therapy and prevention, FITC-labeled S. epidermidis were incubated in the presence or absence of RIP with a confluent layer of keratinocytes (HaCat cells) for 30 min.

Test [4] concerns S. aureus GISA. Put plainly: Rat subcutaneous Dacron graft infection model, GISA strain. Particulars: Table 3B S. aureus, mean ± SD. Type of test: in vivo. As for the experimental part: (§1) Rats (Wistar adult males (300-350 g), n=15/experimental group) were anaesthetized, hair on their back shaved and the skin cleansed with 10% povidone-iodine solution. A subcutaneous pocket was made on the side of the median line by a 1.5 cm incision. Aseptically, 1 cm^2 sterile collagen-sealed Dacron graft (Albograft™, Sorin Biomedica Cardio, S.p.A., Saluggi VC, Italy) was implanted into the pocket. […] Pockets were closed by skin clips and 1 ml sterile saline solution with or without 2×10^7 bacteria was inoculated onto the graft surface using a tuberculin syringe to create a subcutaneous fluid-filled pocket. Some of the animals that had grafts soaked only with RIP or saline were injected intraperitoneally with antibiotics (cefazolin 30 mg/kg, imipenem 30 mg/kg, teicoplanin 10 mg/kg, levofloxacin 10 mg/kg). Grafts were explanted 7 days following implantation. Estimated RIP that adhered to graft was 10-26 μg.
(§2) The explanted grafts were placed in sterile tubes, washed in sterile saline solution, placed in tubes containing 10 ml of phosphate-buffered saline solution and sonicated for 5 min to remove the adherent bacteria from the grafts. Quantitation of viable bacteria was performed by culturing serial 10-fold dilutions (0.1 ml) of the bacterial suspension on blood agar plates. All plates were incubated at 37° C. for 48 hr and evaluated for the presence of the strain. Bacteria were quantitated by counting the number of colony forming unites (CFU) per plate. To determine if bacteria were efficiently removed from the graft, washed and sonicated grafts were observed under a Nikon Eclipse E 600 optical microscope (Nikon Y-THS, Japan).
(§3) Animals (15/group) received a Dacron-graft implanted in a subcutaneous pocket. Graft was subsequently infected with either S. epidermidis (tested on MSSE, MRSE and GISE) or with S. aureus (tested on MSSA, MRSA and GISA). The Dacron-graft prior to implantation was soaked in saline with or without 20 mg/l of RIP and some animals received […] of RIP i.p. as a prophylaxis treatment.

Test [5] deals with bacterial adhesion to HEp2 cells. The following applies: cited from earlier work.
Test [6] deals with S. aureus MSSA. Briefly: Rat subcutaneous Dacron graft infection model, MSSA strain. Particulars: Table 3B S. aureus, mean ± SD. Format: in vivo. The protocol: as §1, §2, §3
Test [7] deals with S. epidermidis (all strains tested). Put plainly: Rat subcutaneous Dacron graft infection model, all strains tested (GISE, MRSE, MSSE). The following applies: RIP-coated graft. Type of test: in vivo. As for the experimental part:
as §1, with “Some of the animals that had grafts soaked only with RIP or saline were injected intraperitoneally with antibiotics (cefazolin 30 mg/kg, imipenem 30 mg/kg, teicoplanin 10 mg/kg, levofloxacin 10 mg/kg). Grafts were explanted 7 days following implantation. Estimated RIP that adhered to graft was 10-26 μg.” left out
The explanted grafts were placed in sterile tubes, washed in sterile saline solution, placed in tubes containing 10 ml of phosphate-buffered saline solution and sonicated for 5 min to remove the adherent bacteria from the grafts. Quantitation of viable bacteria was performed by culturing serial 10-fold dilutions (0.1 ml) of the bacterial suspension on blood agar plates. All plates were incubated at 37° C. for 48 hr and evaluated for the presence of the strain. Bacteria were quantitated by counting the number of colony forming unites (CFU) per plate. […]
Quantitative culture results of the in vivo experiments were presented as mean+SD of the mean. […]

Test [8] has as its system S. aureus Smith Diffuse. The following applies: mice; cited from earlier work.
For test [9], the system named is bacterial adhesion to polystyrene, silicone and polyurethane. Particulars: cited from earlier work.
For test [10], the system named is S. epidermidis MRSE strain. Put plainly: Rat subcutaneous Dacron graft infection model, MRSE strain. Format: in vivo. The following applies: for Bacterial concentration, MRSE: 2×10^7 bacteria, explanted day 7; for Bacterial concentration, MRSE / Bacterial load on graft, MRSE: mean ± SD; for Bacterial load on graft, MRSE: Table 3A S. epidermidis. The protocol: as §1, with “implantation.” for “implantation. Estimated RIP that adhered to graft was 10-26 μg.”
as §2
Quantitative culture results of the in vivo experiments were presented as mean+SD of the mean. Comparisons of the results were performed by the analysis of variance (ANOVA) on the log-transformed data. Statistical analysis was performed for in vitro adhesion assays using Student's t-Test by Microsoft Excel (Microsoft, Wash.). Significance was accepted when the P value was <0.05.
To test if RIP can prevent graft-associated infections, Dacron grafts were coated with or without RIP, and with or without various types of antibiotics (for local prophylaxis experiments). Coated grafts were implanted in rats, bacteria injected into the implants, implants removed after a week, and bacterial load determined. Alternatively, Dacron grafts were first coated with RIP, bacteria injected, and antibiotics were administered by the intraperitoneal route (for parenteral prophylaxis experiments). As a negative control, grafts were implanted without local or parenteral RIP/antibiotics prophylaxis and no bacteria were injected. As a positive control, grafts were implanted, bacteria were injected, but no RIP/antibiotics prophylaxis was given.
as §3

In test [11] the test system is S. epidermidis adherence to polystyrene. Briefly: Adherence and biofilm formation of S. epidermidis on polystyrene (safranin). Format: cell-based. Particulars: polystyrene microtiter plates, 3 hrs. As for the experimental part: FIG. 14B is a graph depicting adherence in the presence of RIP RIP+ and in the absence of RIP RIP−. S. epidermidis were grown in polystyrene plates for 3 hrs, adherent bacteria were stained by safranin, and absorbance at 490 nm was determined.
To test whether RIP reduces adherence and biofilm formation of S. epidermidis to plastic, early exponential S. epidermidis were grown for 3 hrs in microtiter plates made of polystyrene, and adherent cells were stained with safranin. These experimental conditions allow for biofilm to be formed (as observed by atomic force microscopy, not shown).

Where [12] appears, read: RIP local (graft soaked in 20 mg/l RIP).
[13] abbreviates: RIP parenteral (10 mg/l RIP i.p.).

Turning to YSPWTNF(—NH2) (YSPWTNF-NH2) [RIP], the “Suppressing S. aureus infection: osteomyelitis” value in [1] is recorded as “extremely effective”. For the same substance, in test [2], the “Suppressing S. aureus infection: mastitis” value is recorded as “extremely effective”. In [3], the “S. epidermidis adherence to HaCat cells” value is listed as “significantly (p<0.05) reduced”. Also, the “Bacterial load on graft, GISE” value in test [4] (setting [12]) is recorded as 0.70 ± 0.28 ×10^4 CFU/ml; in test [4] (RIP local + RIP parenteral), 0.00 ± 0 ×10^4 CFU/ml; in test [4] (setting [13]), 0.49 ± 0.11 ×10^4 CFU/ml. The “Bacterial adhesion to eukaryotic cells” value in test [5] was “decreased”. In addition, the “Bacterial load on graft, MSSE” value in test [6] (setting [12]) is 0.55 ± 0.19 ×10^4 CFU/ml; in test [6] (RIP local + RIP parenteral), 0.00 ± 0 ×10^4 CFU/ml; in test [6] (setting [13]), 0.045 ± 0.009 ×10^4 CFU/ml. Further, the “Reduction of bacterial load” value in [7] worked out at 3 log. Further, the “Suppressing S. aureus infection: cellulitis” value in [8] is recorded as “extremely effective”. In test [9], the “Bacterial adhesion to plastic” value is reported as “decreased”. Besides, the “Bacterial concentration, MRSE” value in [10] (A. Local prophylaxis: graft soaked 20 min in RIP 10 mg/l and/or antibiotic (mupirocin 100, quinupristin-dalfopristin 50, levofloxacin 30, rifampin 5 mg/l), rats) is recorded as 0.74 ± 0.18 ×10^4 CFU/ml; in test [10] (B. Parenteral prophylaxis: antibiotic intraperitoneally (cefazolin 30, imipenem 30, teicoplanin 10, levofloxacin 10 mg/kg), RIP as 10 mg/l graft soak, rats), 0.74 ± 0.18 ×10^4 CFU/ml. Moreover, the “Bacterial load on graft, MRSE” value in [10] (setting [12]) was 0.087 ± 0.023 ×10^4 CFU/ml; in [10] (RIP local + RIP parenteral), 0.00 ± 0 ×10^4 CFU/ml; in test [10] (setting [13]), 0.052 ± 0.017 ×10^4 CFU/ml. Moreover, in test [10] (peptide-soaked/coated Dacron graft (RIP 10 mg/l), no antibiotic, rats, day 7), the “Quantitative culture results of explanted graft, MRSE strain” value is given as 7.4×10^3±1.8×10^3 CFU/ml. For the same substance, in test [11], the “Number of cells that adhered to the plastic” value is on record as “significantly reduced”.
